The source of these data is patent US20050272726A1, “Novel medicaments for the treatment of respiratory diseases” (Boehringer Ingelheim International GmbH, priority 2004, published 2005).

Where a name gives a salt, the structure may show the parent alone.

`Cc1cc(CC(C)(C)NCC(O)c2cc(O)cc3c2OCC(=O)N3)ccc1F` (centres unmarked) (as salt: hydrochloride) [Example 8, 8-{2-[2-(4-Fluoro-3-methyl-phenyl)-1,1-dimethyl-ethylamino]-1-hydroxy-ethyl}-6-hydroxy-4H-benzo[1,4]oxazin-3-one] had a melting point of 278 to 280 °C. Take `Cc1cc(F)ccc1CC(C)(C)NCC(O)c1cc(O)cc2c1OCC(=O)N2` (centres unmarked) (as salt: hydrochloride) [Example 9, 8-{2-[2-(4-fluoro-2-methyl-phenyl)-1,1-dimethyl-ethylamino]-1-hydroxy-ethyl}-6-hydroxy-4H-benzo[1,4]oxazin-3-one]: the melting point fell in the range of 278 to 280 °C. The same measure for `Cc1cc(C)cc(CC(C)(C)NCC(O)c2cc(O)cc3c2OCC(=O)N3)c1` (centres unmarked) (as salt: hydrochloride) [Example 13, 8-{2-[2-(3,5-dimethyl-phenyl)-1,1-dimethyl-ethylamino]-1-hydroxy-ethyl}-6-hydroxy-4H-benzo[1,4]oxazin-3-one]: 235 to 238 °C; for `CC(C)(Cc1ccc(F)cc1F)NCC(O)c1cc(O)cc2c1OCC(=O)N2` (centres unmarked) (as salt: hydrochloride): 279 to 280 °C; for `CC(C)(Cc1ccc(OCCCC(=O)O)cc1)NCC(O)c1cc(O)cc2c1OCC(=O)N2` (centres unmarked) [Example 14, 4-(4-{2-[2-hydroxy-2-(6-hydroxy-3-oxo-3,4-dihydro-2H-benzo[1,4]oxazin-8-yl)-ethylamino]-2-methyl-propyl}-phenoxy)-butyric acid]: 201 to 204 °C.

By melting point is commonly meant the temperature of the solid-liquid transition.
